From patent publication US9474814B2, “Differential evaporation potentiated disinfectant system” (XY, LLC, priority 2007, dated 2016)

What was measured:
[1] = tested on: Staphylococcus aureus (ATCC 6538); experiment: Potentiation Assay (non-evaporative vs evaporative procedure); format: cell-based; details: for evaporative potentiation of antimicrobial efficacy: evaporative vs non-evaporative procedure, concentrations tested in water; for Evaporated Log 10 Reduction: evaporated in centrifuge 60 minutes; for Non-evaporated Log 10 Reduction: set 60 minutes
Protocol: Now referring primarily to Table 5 and FIG. […] The non-evaporative and evaporative procedures included 50 μL of an overnight Staphylococcus aureus (ATCC 6538, ˜10^9 CFU/mL) culture added to each 2 mL sterile plastic vial with a conical bottom and dried without capping in a centrifuge for 30 minutes. One hundred microliters of the solution being tested was added to each vial (as triplicate vials) either let set for 60 minutes (non-evaporative) or evaporated in a centrifuge for 60 minutes (evaporative), with time to evaporate being determined by each DAA mixtures own evaporative characteristic. To the non-evaporated vials, 400 μL Mueller Hinton Broth (MHB) was added to the vial and 100 μL was plated onto Nutrient agar (NA). To the evaporated vials, 500 μL of MHB was added and 100 μL was plated onto NA. Plates were incubated overnight at ˜37° C. and counted (the “Potentiation Assay”).

[2] = Relative evaporation rates; format: physicochemical; details: BuAc (reference) = 1.00
Description: Line C represents the change in fluid volume of a 20% (v/v) solution of diacetone alcohol in water caused by evaporation (a particular embodiment of the inventive differential evaporation antimicrobial composition), while line D represents the change in fluid phase concentration of the same 20% (v/v) diacetone alcohol in water occurring during the same fluid volume change. In this case, complete evaporation can occur in approximately 75 time units. Comparatively, the 20% (v/v) diacetone alcohol in water can be engaged with a population of microorganisms for a greater duration of time than the conventional antimicrobial composition without reapplication of an additional amount because evaporation occurs at a slower rate as shown by Table 3.

[3] = neat substance; BuAc (reference) = 1.00; cited from earlier work
[4] = flash point; cited from earlier work
[5] = Table 1; cited from earlier work
[6] = 5% v/v active component, 95% water
[7] = 10% v/v active component, 90% water
[8] = 15% v/v active component, 85% water

Row | SMILES | evaporative potentiation of antimicrobial efficacy [1] | Evaporated Log 10 Reduction [1, 6] | Non-evaporated Log 10 Reduction [1, 6] | Evaporated Log 10 Reduction [1, 7] | Non-evaporated Log 10 Reduction [1, 7] | Evaporated Log 10 Reduction [1, 8] | Non-evaporated Log 10 Reduction [1, 8] | also measured
1 | CCCCOCCO [EGMBE, ethylene glycol monobutyl ether] | can be potentiated by evaporation | – | – | – | – | – | – | Relative Evaporation Rates (estimated) ([2]; 10% (v/v)): 0.33; Relative Evaporation Rates (estimated) ([2]; 20% (v/v)): 0.30; Relative Evaporation Rates [3]: 0.06
2 | COCCOC(C)=O [EGMEA, ethylene glycol monomethyl ether acetate] | can be potentiated by evaporation | ---0--- (denotes a plate where the numbers of colonies represented more than 50% of the number of colonies counted in the corresponding positive control plate, representing no significant reduction in the population of viable microorganisms (0 to 1 Log10 reduction).) | ---0--- (denotes a plate where the numbers of colonies represented more than 50% of the number of colonies counted in the corresponding positive control plate, representing no significant reduction in the population of viable microorganisms (0 to 1 Log10 reduction).) | ---0--- (denotes a plate where the numbers of colonies represented more than 50% of the number of colonies counted in the corresponding positive control plate, representing no significant reduction in the population of viable microorganisms (0 to 1 Log10 reduction).) | ---0--- (denotes a plate where the numbers of colonies represented more than 50% of the number of colonies counted in the corresponding positive control plate, representing no significant reduction in the population of viable microorganisms (0 to 1 Log10 reduction).) | XX (denotes a plate where the number of colonies represented less than 10% of the number of colonies counted in the corresponding positive control plate, representing a significant reduction of the number of microorganisms (>3 Log10 reduction).) | ---0--- (denotes a plate where the numbers of colonies represented more than 50% of the number of colonies counted in the corresponding positive control plate, representing no significant reduction in the population of viable microorganisms (0 to 1 Log10 reduction).) | –
3 | CCO [Ethanol, reference compound] | – | – | – | – | – | – | – | FP [4]: 22 °C; Azeotrope with Water % v/v [5]: 94% v/v; Azeotrope with Water % w/w [5]: 95% w/w
4 | CO [Methanol] | – | – | – | – | – | – | – | FP [4]: 11 °C
5 | CCC(C)=NO [MEKO, 2-butanone oxime] | can be potentiated by evaporation | – | – | XXX (denotes a plate in which zero colonies were present, representing complete reduction of the number of microorganisms (>5 Log10 reduction).) | XXX (denotes a plate in which zero colonies were present, representing complete reduction of the number of microorganisms (>5 Log10 reduction).) | XXX (denotes a plate in which zero colonies were present, representing complete reduction of the number of microorganisms (>5 Log10 reduction).) | XXX (denotes a plate in which zero colonies were present, representing complete reduction of the number of microorganisms (>5 Log10 reduction).) | –
6 | CC(=O)OCCOC(C)=O [EGDA, ethylene glycol diethyl ester] | can be potentiated by evaporation | ---0--- (denotes a plate where the numbers of colonies represented more than 50% of the number of colonies counted in the corresponding positive control plate, representing no significant reduction in the population of viable microorganisms (0 to 1 Log10 reduction).) | ---0--- (denotes a plate where the numbers of colonies represented more than 50% of the number of colonies counted in the corresponding positive control plate, representing no significant reduction in the population of viable microorganisms (0 to 1 Log10 reduction).) | XX (denotes a plate where the number of colonies represented less than 10% of the number of colonies counted in the corresponding positive control plate, representing a significant reduction of the number of microorganisms (>3 Log10 reduction).) | ---0--- (denotes a plate where the numbers of colonies represented more than 50% of the number of colonies counted in the corresponding positive control plate, representing no significant reduction in the population of viable microorganisms (0 to 1 Log10 reduction).) | XX (denotes a plate where the number of colonies represented less than 10% of the number of colonies counted in the corresponding positive control plate, representing a significant reduction of the number of microorganisms (>3 Log10 reduction).) | ---0--- (denotes a plate where the numbers of colonies represented more than 50% of the number of colonies counted in the corresponding positive control plate, representing no significant reduction in the population of viable microorganisms (0 to 1 Log10 reduction).) | –
7 | CN(C)CCO [DMEA, 2-dimethylaminoethanol] | – | XX (denotes a plate where the number of colonies represented less than 10% of the number of colonies counted in the corresponding positive control plate, representing a significant reduction of the number of microorganisms (>3 Log10 reduction).) | ---0--- (denotes a plate where the numbers of colonies represented more than 50% of the number of colonies counted in the corresponding positive control plate, representing no significant reduction in the population of viable microorganisms (0 to 1 Log10 reduction).) | XXx (denotes a plate where the number of colonies represented less than 1% of the number of colonies counted in the corresponding positive control plate, representing nearly complete reduction of the number of microorganisms (>4 Log10 reduction).) | ---0--- (denotes a plate where the numbers of colonies represented more than 50% of the number of colonies counted in the corresponding positive control plate, representing no significant reduction in the population of viable microorganisms (0 to 1 Log10 reduction).) | XXx (denotes a plate where the number of colonies represented less than 1% of the number of colonies counted in the corresponding positive control plate, representing nearly complete reduction of the number of microorganisms (>4 Log10 reduction).) | ---0--- (denotes a plate where the numbers of colonies represented more than 50% of the number of colonies counted in the corresponding positive control plate, representing no significant reduction in the population of viable microorganisms (0 to 1 Log10 reduction).) | –
8 | O [water] | – | – | – | – | – | – | – | Relative Evaporation Rates [3]: 0.36
